Values quoted from earlier work as cited in patent US10485764B2, “Lyophilized pharmaceutical compositions” (Otsuka Pharmaceutical Co., Ltd., priority 2015, dated 2019).

Test system: HDAC
Conditions: in vitro or in vivo, from literature

Row | Compound | HDAC inhibition
1 | O=C(/C=C/c1cccc(C(=O)NO)c1)NO [CBHA, m-carboxy-cinnamic acid bishydroxamic acid] | micromolar concentration or lower
2 | trichostatin A [TSA] | potent inhibitor of mammalian HDAC
3 | C/C=C1\NC(=O)[C@H]2CSSCC/C=C/[C@H](CC(=O)N[C@H](C(C)C)C(=O)N2)OC(=O)[C@H](C(C)C)NC1=O [FR901228] | micromolar concentrations
4 | depudecin | micromolar concentrations
